Experimental data as given in patent US20070270418A1, “Inhibitors of P38 and Methods of Using the Same” (priority 2003, published 2007).
Where two headings read alike, the source gives them in different places.

Legend:
p38α = target: T1, p38α (Homo sapiens, UniProt Q16539); assay: p38 MAP Kinase assay, ATF2 phosphorylation (ELISA); format: biochemical; conditions: 40 μM ATP
T1 construct: p38 MAP Kinases are recombinant human full-length proteins with an amino-terminal GST fusion; GST (N); purchased Upstate (Charlottesville, Va.); host or cells: E. coli
T1 sequence (Q16539 whole entry, the tested form may be a part): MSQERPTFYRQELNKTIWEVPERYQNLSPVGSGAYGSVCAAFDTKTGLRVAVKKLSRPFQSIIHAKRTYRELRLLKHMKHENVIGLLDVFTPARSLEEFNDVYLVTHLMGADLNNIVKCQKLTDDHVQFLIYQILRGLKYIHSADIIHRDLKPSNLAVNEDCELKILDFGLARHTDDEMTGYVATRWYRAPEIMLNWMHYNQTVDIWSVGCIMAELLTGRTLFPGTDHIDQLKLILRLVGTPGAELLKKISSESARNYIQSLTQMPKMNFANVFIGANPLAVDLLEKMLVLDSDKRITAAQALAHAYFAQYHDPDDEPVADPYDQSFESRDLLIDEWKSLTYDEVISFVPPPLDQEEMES
Excerpt: Compounds of the invention are screened for the ability to inhibit ATF2 phosphorylation by p38 MAP Kinase in vitro. The ability of compounds to inhibit ATF2 phosphorylation in this in vitro assay is correlated with the inhibition of p38 MAP Kinase and TNFα expression in vivo, and is therefore an indicator of potential in vivo therapeutic activity (Raingeaud, J., et al, J. Biol. Chem., 270: 7420-7426, 1995, Brinkman, M. N., et al, J. Bil. Chem. 274: 30882-30886, 1999 and Fuchs, S. Y. et al, J. Biol. Chem. 275: 12560-12564, 2000).
All kinases and the substrate ATF2 are acquired from Upstate (Charlottesville, Va.). p38 MAP Kinases are recombinant human full-length proteins with an amino-terminal GST fusion, expressed in and purified from E. coli. ATF2 is a GST fusion protein containing amino acids 19-96 of human ATF2 expressed in E. coli. All proteins were aliquoted and stored at −80° C.
p38 MAP Kinase assays are performed using an assay buffer containing 25 mM HEPES, pH 7.5, 10 mM MgCl2, 2 mM DTT, 20 mM β-glycerophosphate, 0.1 mM Na3VO4, 40 μM ATP and 1.25 μM of ATF2, together with 6 ng of p38α protein, 12 ng p38β protein, 1.5 ng p38γ, or 0.4 ng JNK2α2. Compounds are serially diluted in DMSO and 2 μL of test compound at 25× final concentration is used. The vehicle control receives DMSO only. Test compounds are pre-incubated with 20 μl of enzyme in kinase buffer (25 mM HEPES, pH 7.5, 10 mM MgCl2, 2 mM DTT, 20 mM 3-glycerophosphate and 0.1 mM Na3VO4) at room temperature for 15 minutes. […] The reactions are incubated for 30 minutes at 37° C. and terminated by the addition of 18 μl of 200 mM EDTA. An ELISA method is used to measure the phosphorylation of ATF2 at Thr 69. High binding 96-well plates (Corning 3369) are coated with 50 μl of kinase reaction for 1 hour at 37° C. The coated plates are washed with 200 μl washing buffer (25 mM Tris HCl, pH 8.3, 192 mM glycine, 0.1% SDS and 0.05% Tween-20) three times. The plates are then washed three times with SuperBlock in TBS (Pierce, 37535). After blocking, plates are incubated with 50 μl of rabbit anti-phospho-ATF2 antibody (Cell Signaling, 9221 L, 1:500) for 30 minutes at 37° C. Plates are washed three times with washing buffer prior to incubation with 50 μl HRP-conjugated goat anti-rabbit antibody (Cell Signaling, 7074, 1:500) for 30 minutes at 37° C. Plates are then washed three times with washing buffer before incubation with 50 μl of Ultra TMB-ELISA (Pierce, 34028) for 8 minutes at room temperature. Finally, 50 μl of phosphoric acid (1 M) is added to stop reactions and plate absorbance is read at 450 nm on a SpectraMax 250 plate reader.

[1] = tested on: TNFα release from THP-1 cells; assay: TNFα release from LPS-stimulated THP-1 cells; format: cell-based
Excerpt: Compounds of the invention are screened for the ability to inhibit TNFα and IL-1β release from THP-1 cells stimulated with lipopolysaccharide (LPS) in vitro. The ability of compounds to inhibit TNFα and IL-1β release in this in vitro assay is correlated with the inhibition of p38 activity and TNFα and IL-1β expression in vivo, and is therefore an indicator of potential in vivo therapeutic activity (Lee J. C. et al, Ann. N.Y. Acad. Sci. 696: 149-170, 1993 and Nature, 372: 739-746, 1994).
THP-1 cells from ATCC (TIB202) are maintained at 37° C., 5% CO2 in RPMI 1640 media (MediaTech, Herndon, Va.) containing 4.5 g/L glucose, supplemented with 10% fetal bovine serum, 1% penicillin/streptomycin and 50 μM β-mercaptoethanol.
Test compounds are initially dissolved in RPMI media with 1% DMSO (v/v). Compounds are then serially diluted in RPMI media for all subsequent dilutions. The assay is performed under sterile conditions. THP-1 cells at a culture density of 6-8×10^5 cells/ml are collected and resuspended in the RPMI media at 10^6 cells/ml. 100 μl of resuspended cells are added to each well, which contain 100 μl of a test compound. Test compounds are prepared at twice the final concentration. Final DMSO concentration is no more than 0.5% (v/v). Cells are preincubated with compound for 30 minutes at 37° C., 5% CO2 prior to stimulation with lipopolysaccharide (LPS) (Sigma L-2880, 4 mg/ml stock in PBS). The final LPS concentration in each well is 10 or 30 μg/ml for TNFα and IL-1β release, respectively. Unstimulated control cell suspensions receive PBS vehicle only. Cell mixtures are incubated for 18 or 48 hours for TNFα and IL-1β release, respectively. 150 μl of supernatants are taken and transferred to a fresh plate and stored at −20° C. until further analysis.

[2] = Homo sapiens, THP-1, 18 h, LPS 10 μg/ml, 18 hours, read-out: TNFα (THP-1) IC50
[3] = LPS 10 μg/ml, 18 hours, read-out: TNFα (THP-1) IC50
[4] = Homo sapiens, THP-1, 18 h, read-out: TNFα (THP-1) IC50 (nM)

Row | Compound | IC50 (p38α) [µM] | IC50 [1, 2] [nM] | IC50 [1, 3] [nM] | IC50 [1, 4] [nM]
1 | CC(C)(C)OC(=O)N1CCCC1CNc1nccc(-c2c(-c3ccc(F)cc3)nc3sccn23)n1 (stereo not shown) [CCLXIV] | 0.00726 | 27.5 | – | –
2 | CS(=O)(=O)N1CCC(Nc2nccc(-c3c(-c4ccc(F)cc4)nc4sccn34)n2)CC1 [CCLXI] | 0.00131 | 3.08 | – | –
3 | CC(C)[C@@H](CO)Nc1nccc(-c2c(-c3ccc(Br)cc3)nc3sccn23)n1 [CCLXXI] | 0.0757 | – | 100 | –
4 | Cc1ccc(-c2nc3sccn3c2-c2ccnc(N[C@H](CO)C(C)C)n2)cc1 [CCLXXVII] | 0.147 | – | 58.7 | –
5 | CC(C)[C@@H](CO)Nc1nccc(-c2c(-c3ccc(F)c(F)c3)nc3sccn23)n1 [CCLXXV] | 0.191 | – | 43.3 | –
6 | CC(C)(C)OC(=O)N1CCC(Nc2nccc(-c3c(-c4ccc(F)cc4F)nc4occn34)n2)CC1 [CCLXXXIII] | 0.0011 | 52.7 | – | –
7 | CN(C)CC(C)(C)CNc1nccc(-c2c(-c3ccccc3Cl)nc3occn23)n1 [CCLXXXII] | 0.0448 | 88.4 | – | –
8 | CC(C)(C)OC(=O)N1CCC(Nc2nccc(-c3c(-c4ccc(F)cc4Cl)nc4occn34)n2)CC1 [CCLXXXIV] | 0.0014 | 96.2 | – | –
9 | Fc1ccc(-c2nc3occn3c2-c2ccnc(N[C@@H]3CN4CCC3CC4)n2)c(F)c1 [CCLXXXIX] | 0.0013 | – | – | 3.2
10 | Cc1ccccc1-c1nc2occn2c1-c1ccnc(NC2CCN(C(=O)OC(C)(C)C)CC2)n1 [CCLXXXVIII] | 0.0048 | 211 | – | –
11 | CC(C)(C)OC(=O)N1CCC(Nc2nccc(-c3c(-c4ccccc4Cl)nc4occn34)n2)CC1 [CCLXXXVII] | 0.0082 | 170 | – | –
12 | Fc1ccc(-c2nc3occn3c2-c2ccnc(NC3CCNCC3)n2)c(Cl)c1 [CCLXXXVI] | 0.007 | 67.3 | – | –
13 | Fc1ccc(-c2nc3occn3c2-c2ccnc(NC3CCNCC3)n2)c(F)c1 [CCLXXXV] | 0.0033 | 9.9 | – | –
14 | COc1cccc(-c2nc3sccn3c2-c2ccnc(N[C@H](CO)C(C)C)n2)c1 [CCLXX] | 0.112 | – | 93.5 | –
15 | CC(C)(Nc1nccc(-c2c(-c3ccc(F)cc3)nc3sccn23)n1)C(O)c1ccccc1 (stereo not shown) [CCLX] | 0.03 | 213 | – | –
16 | OC1(CNc2nccc(-c3c(-c4ccc(F)cc4)nc4sccn34)n2)CCCCC1 [CCL] | 0.0272 | 15.5 | – | –
17 | CC(C)[C@@H](CO)Nc1nccc(-c2c(-c3ccc(F)c(F)c3)nc3sccn23)n1 [CCVII] | 0.191 | 43.4 | – | –
18 | FC(F)(F)c1cccc(-c2nc3occn3c2-c2ccnc(N[C@@H]3CN4CCC3CC4)n2)c1 [CCXCIII] | 0.0049 | 172 | – | –
19 | Cc1ccccc1-c1nc2occn2c1-c1ccnc(N[C@@H]2CN3CCC2CC3)n1 [CCXCII] | 0.0163 | – | – | 47.8
20 | FC(F)(F)c1cccc(-c2nc3occn3c2-c2ccnc(N[C@H]3CN4CCC3CC4)n2)c1 [CCXCIV] | 0.0164 | 90 | – | –
21 | CN(C)CC(C)(C)CNc1nccc(-c2c(-c3ccc(F)cc3F)nc3occn23)n1 [CCXCIX] | 0.0061 | 17.8 | – | –
22 | Clc1ccccc1-c1nc2occn2c1-c1ccnc(N[C@@H]2CN3CCC2CC3)n1 [CCXCI] | 0.0112 | – | – | 77

Row | Compound | IC50 (p38α) [µM] | IC50 [1, 2] [nM] | IC50 [1, 3] [nM] | IC50 [1, 4] [nM]
23 | Cc1ccccc1-c1nc2occn2c1-c1ccnc(NCC(C)(C)CN(C)C)n1 [CCXCVIII] | 0.0522 | 85.1 | – | –
24 | CN1[C@@H]2CC[C@H]1C[C@@H](Nc1nccc(-c3c(-c4ccccc4Cl)nc4occn34)n1)C2 [CCXCVII] | 0.0068 | – | – | 24.4
25 | CN1[C@@H]2CC[C@H]1C[C@@H](Nc1nccc(-c3c(-c4ccc(F)cc4Cl)nc4occn34)n1)C2 [CCXCVI] | 0.0036 | – | – | 15.5
26 | Fc1ccc(-c2nc3occn3c2-c2ccnc(N[C@H]3CN4CCC3CC4)n2)c(Cl)c1 [CCXCV] | 0.0097 | 8.7 | – | –
27 | CN(C)CC(C)(C)CNc1nccc(-c2c(-c3ccc(F)cc3Cl)nc3occn23)n1 [CCXCX] | 0.0203 | 78.2 | – | –
28 | Fc1ccc(-c2nc3occn3c2-c2ccnc(N[C@@H]3CN4CCC3CC4)n2)c(Cl)c1 [CCXC] | 0.0068 | 72 | – | –
29 | Fc1ccc(-c2nc3sccn3c2-c2ccnc(NCC3CC3)n2)cc1 [CCXIII] | 0.0133 | 5.63 | – | –
30 | Oc1ccc(C(O)CNc2nccc(-c3c(-c4ccc(F)cc4)nc4sccn34)n2)cc1 (stereo not shown) [CCXII] | 0.00881 | 24.1 | – | –
31 | C[C@H](O)CNc1nccc(-c2c(-c3ccc(F)cc3)nc3sccn23)n1 [CCXIV] | 0.0121 | 5.03 | – | –
32 | CC[C@@H](CO)Nc1nccc(-c2c(-c3ccc(F)cc3)nc3sccn23)n1 [CCXIX] | 0.00303 | 6.84 | – | –
33 | Cc1ccc(-c2nc3sccn3c2-c2ccnc(N[C@H](CO)C(C)C)n2)cc1 [CCXI] | 0.147 | 58.9 | – | –
34 | Nc1ccc(CCNc2nccc(-c3c(-c4ccc(F)cc4)nc4sccn34)n2)cc1 [CCXLIII] | 0.00219 | 19.5 | – | –
35 | CCC(O)CNc1nccc(-c2c(-c3ccc(F)cc3)nc3sccn23)n1 (stereo not shown) [CCXLII] | 0.00328 | 3.83 | – | –
36 | CN(C)CC(C)(C)CNc1nccc(-c2c(-c3ccc(F)cc3)nc3sccn23)n1 [CCXLIV] | 0.0114 | 5.98 | – | –
37 | Fc1ccc(-c2nc3sccn3c2-c2ccnc(NCCN3CCOCC3)n2)cc1 [CCXLIX] | 0.0316 | 20.3 | – | –
38 | CC(C)(CO)Nc1nccc(-c2c(-c3ccc(F)cc3)nc3sccn23)n1 [CCXLI] | 0.00281 | 5.18 | – | –
39 | OC1(CNc2nccc(-c3c(-c4ccc(F)cc4)nc4sccn34)n2)CCCc2ccccc21 (stereo not shown) [CCXLVIII] | 0.00839 | 20.8 | – | –
40 | Fc1ccc(CCNc2nccc(-c3c(-c4ccc(F)cc4)nc4sccn34)n2)cc1 [CCXLVII] | 0.00484 | 33.2 | – | –
41 | Oc1cccc(C(O)CNc2nccc(-c3c(-c4ccc(F)cc4)nc4sccn34)n2)c1 (stereo not shown) [CCXLVI] | 0.00306 | 23.9 | – | –
42 | Fc1ccc(-c2nc3sccn3c2-c2ccnc(NCCN3CCCCC3)n2)cc1 [CCXLV] | 0.0821 | 14.2 | – | –
43 | Fc1ccc(-c2nc3sccn3c2-c2ccnc(NCc3nc4ccccc4[nH]3)n2)cc1 [CCXL] | 0.135 | 3300 | – | –
44 | Fc1ccc(-c2nc3sccn3c2-c2ccnc(NCCc3ccncc3)n2)cc1 [CCXVIII] | 0.00587 | 4.46 | – | –
